Organism: Rattus norvegicus
Assay: Open TG-GATES - Regimen: Single
Type: toxicity, organism-based, Sprague-Dawley
Set-up: regimen Single, gender Male, age 6 weeks
Conditions: in vivo, po, 0 mg/kg, route gavage, dose level Control; for APTT / Bas / Eos / Fbg / Hb / Ht / Lym / MCH / MCHC / MCV / Mono / Neu / PT / Plat / RBC / Ret / WBC: tissue Blood; for KIDNEY_L / KIDNEY_R / KIDNEY_TOTAL: tissue Kidney; for LIVER: tissue Liver; for A/G / ALP / ALT / AST / BUN / CRE / Ca / Cl / DBIL / GLC / IP / K / LDH / Na / PL / RALB / TBIL / TC / TG / TP / gamma-GTP: tissue Plasma

Work on `Nc1c2c(nc3ccccc13)CCCC2` [TACRINE] yielded a TERMINAL_BW (3 h) of 206.5 g, an APTT (3 h) of 19.7 s and a Bas (3 h) of 0%. It also gave an Eos (3 h) of 0.8%, a Fbg (3 h) of 293.2 mg/dL and a Hb (3 h) of 13 g/dL. The Ht (3 h) was 37.9%, the Lym (3 h) was 81.6% and the MCH (3 h) was 21.2 pg. It also gave an MCHC (3 h) of 34.2%, an MCV (3 h) of 61.7 fL and a Mono (3 h) of 2%. For the same molecule, the Neu (3 h) was 15%, the PT (3 h) was 16.3 s and the Plat (3 h) was 114.9 x10_4/uL. For the same molecule, the RBC (3 h) was 614.4 x10_4/ul, the Ret (3 h) was 7.9% and the WBC (3 h) was 97 x10_2/uL. For the same molecule, the KIDNEY_L (3 h) was 0.9 g, the KIDNEY_R (3 h) was 0.9 g and the KIDNEY_TOTAL (3 h) was 1.8 g. It also gave an LIVER (3 h) of 9.3 g, an A/G (3 h) of 1.2 and an ALP (3 h) of 1417 IU/L. For the same molecule, the ALT (3 h) was 39.6 IU/L, the AST (3 h) was 77.8 IU/L and the BUN (3 h) was 13 mg/dL. It also gave a CRE (3 h) of 0.2 mg/dL, a Ca (3 h) of 10.6 mg/dL and a Cl (3 h) of 106.8 meq/L. For the same molecule, the DBIL (3 h) was 0.002 mg/dL, the GLC (3 h) was 189.6 mg/dL and the IP (3 h) was 7.9 mg/dL. It also gave a K (3 h) of 3.9 meq/L, an LDH (3 h) of 229 IU/L and a Na (3 h) of 142.6 meq/L. It also gave a PL (3 h) of 131.4 mg/dL, an RALB (3 h) of 3 g/dL and a TBIL (3 h) of 0.018 mg/dL. For the same molecule, the TC (3 h) was 73.2 mg/dL, the TG (3 h) was 60 mg/dL and the TP (3 h) was 5.4 g/dL. It also gave a gamma-GTP (3 h) of 1.2 IU/L, a TERMINAL_BW (6 h) of 208.7 g and an APTT (6 h) of 21.4 s. For the same molecule, the Bas (6 h) was 0%, the Eos (6 h) was 0.8% and the Fbg (6 h) was 310.4 mg/dL. For the same molecule, the Hb (6 h) was 13.3 g/dL, the Ht (6 h) was 38.6% and the Lym (6 h) was 80.2%. It also gave an MCH (6 h) of 21.1 pg, an MCHC (6 h) of 34.5% and an MCV (6 h) of 61.1 fL. The Mono (6 h) was 2.6%, the Neu (6 h) was 16% and the PT (6 h) was 16.1 s. The Plat (6 h) was 115.4 x10_4/uL, the RBC (6 h) was 632.2 x10_4/ul and the Ret (6 h) was 7.7%. The WBC (6 h) was 96.6 x10_2/uL, the KIDNEY_L (6 h) was 0.9 g and the KIDNEY_R (6 h) was 0.9 g. For the same molecule, the KIDNEY_TOTAL (6 h) was 1.9 g, the LIVER (6 h) was 9 g and the A/G (6 h) was 1.2. The ALP (6 h) was 1333 IU/L, the ALT (6 h) was 38.4 IU/L and the AST (6 h) was 74.6 IU/L. For the same molecule, the BUN (6 h) was 10.8 mg/dL, the CRE (6 h) was 0.2 mg/dL and the Ca (6 h) was 10.6 mg/dL. It also gave a Cl (6 h) of 106.8 meq/L, a DBIL (6 h) of 0 mg/dL and a GLC (6 h) of 176.6 mg/dL. For the same molecule, the IP (6 h) was 9.2 mg/dL, the K (6 h) was 4.6 meq/L and the LDH (6 h) was 252.4 IU/L. It also gave a Na (6 h) of 142 meq/L, a PL (6 h) of 137.4 mg/dL and an RALB (6 h) of 2.9 g/dL. For the same molecule, the TBIL (6 h) was 0.016 mg/dL, the TC (6 h) was 79.4 mg/dL and the TG (6 h) was 82 mg/dL. The TP (6 h) was 5.4 g/dL, the gamma-GTP (6 h) was 1.2 IU/L and the TERMINAL_BW (9 h) was 205.8 g. For the same molecule, the APTT (9 h) was 19.8 s, the Bas (9 h) was 0% and the Eos (9 h) was 1%. The Fbg (9 h) was 285.8 mg/dL, the Hb (9 h) was 13.2 g/dL and the Ht (9 h) was 38.4%. It also gave a Lym (9 h) of 81.6%, an MCH (9 h) of 21.1 pg and an MCHC (9 h) of 34.2%. The MCV (9 h) was 61.5 fL, the Mono (9 h) was 2% and the Neu (9 h) was 15%. It also gave a PT (9 h) of 16 s, a Plat (9 h) of 120 x10_4/uL and an RBC (9 h) of 624.8 x10_4/ul. It also gave a Ret (9 h) of 8.6%, a WBC (9 h) of 84.5 x10_2/uL and a KIDNEY_L (9 h) of 0.9 g. It also gave a KIDNEY_R (9 h) of 0.9 g, a KIDNEY_TOTAL (9 h) of 1.8 g and an LIVER (9 h) of 8.8 g. It also gave an A/G (9 h) of 1.3, an ALP (9 h) of 1213.6 IU/L and an ALT (9 h) of 34 IU/L. For the same molecule, the AST (9 h) was 72.6 IU/L, the BUN (9 h) was 12.6 mg/dL and the CRE (9 h) was 0.2 mg/dL. It also gave a Ca (9 h) of 10.4 mg/dL, a Cl (9 h) of 107 meq/L and a DBIL (9 h) of 0 mg/dL. For the same molecule, the GLC (9 h) was 185.6 mg/dL, the IP (9 h) was 9.9 mg/dL and the K (9 h) was 4.2 meq/L. For the same molecule, the LDH (9 h) was 230.8 IU/L, the Na (9 h) was 142 meq/L and the PL (9 h) was 139 mg/dL. It also gave an RALB (9 h) of 3 g/dL, a TBIL (9 h) of 0.022 mg/dL and a TC (9 h) of 75.8 mg/dL. The TG (9 h) was 60.8 mg/dL, the TP (9 h) was 5.4 g/dL and the gamma-GTP (9 h) was 1 IU/L. It also gave a TERMINAL_BW (24 h) of 214.7 g, an APTT (24 h) of 20.5 s and a Bas (24 h) of 0%. The Eos (24 h) was 0.8%, the Fbg (24 h) was 295.8 mg/dL and the Hb (24 h) was 13.4 g/dL. The Ht (24 h) was 38.7%, the Lym (24 h) was 83% and the MCH (24 h) was 21.5 pg. It also gave an MCHC (24 h) of 34.8%, an MCV (24 h) of 61.9 fL and a Mono (24 h) of 3%. The Neu (24 h) was 12.4%, the PT (24 h) was 16.3 s and the Plat (24 h) was 126.5 x10_4/uL. It also gave an RBC (24 h) of 626.2 x10_4/ul, a Ret (24 h) of 7.3% and a WBC (24 h) of 106.1 x10_2/uL. For the same molecule, the KIDNEY_L (24 h) was 0.9 g, the KIDNEY_R (24 h) was 1 g and the KIDNEY_TOTAL (24 h) was 1.9 g. The LIVER (24 h) was 10 g, the A/G (24 h) was 1.3 and the ALP (24 h) was 1572.4 IU/L. It also gave an ALT (24 h) of 43 IU/L, an AST (24 h) of 74.4 IU/L and a BUN (24 h) of 18.8 mg/dL. For the same molecule, the CRE (24 h) was 0.2 mg/dL, the Ca (24 h) was 10.8 mg/dL and the Cl (24 h) was 106.8 meq/L. For the same molecule, the DBIL (24 h) was 0.008 mg/dL, the GLC (24 h) was 191.6 mg/dL and the IP (24 h) was 7.3 mg/dL. The K (24 h) was 4.6 meq/L, the LDH (24 h) was 300.2 IU/L and the Na (24 h) was 141.4 meq/L. For the same molecule, the PL (24 h) was 154.2 mg/dL, the RALB (24 h) was 3.1 g/dL and the TBIL (24 h) was 0.032 mg/dL. For the same molecule, the TC (24 h) was 79.8 mg/dL, the TG (24 h) was 103 mg/dL and the TP (24 h) was 5.4 g/dL. The gamma-GTP (24 h) was 1 IU/L.
